These results are taken from patent US9145391B2, “Bipyridylaminopyridines as Syk inhibitors” (Merck Sharp & Dohme Corp., priority 2011, dated 2015).

The target of the experiment is recombinant human GST-Syk (Homo sapiens (Human), UniProt P43405). The experiment in a line: Homogeneous Time-Resolved Fluorescence (HTRF) assay for the recombinant human Syk enzyme. It counts as biochemical. The conditions noted are these: recombinant human GST-Syk 5 pM, ATP 25 μM, read-out: rhSyk IC50. In outline: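 Recombinant GST-hSyk fusion protein kinase activity was read by HTRF. Reactions were started with biotinylated substrate peptide at 250 nM final, Mg 5 mM final and ATP 25 μM final. Potency derived from inhibition of substrate phosphorylation.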
(TR-FRET usually uses a lanthanide donor and a delayed reading to cut background.)

A word on the IC50: it is the point on the concentration scale where inhibition reaches its midpoint. With `Cc1cc(Nc2cc(C(F)(F)F)ccn2)nc(-c2ccc(NC3CCN(C(=O)c4ccc(-c5ccccc5)cc4)CC3)nc2)c1` [Example 4-81], the concentration for half-maximal inhibition (IC50) was found to be 44 nM.
Under `Cc1cc(Nc2cc(C(F)(F)F)ccn2)nc(-c2ccc(NC3CCN(C(=O)Cc4cccc(C#N)c4)CC3)nc2)c1` [Example 4-82] stands 3 nM; under `Cc1cc(Nc2cc(C(F)(F)F)ccn2)nc(-c2ccc(NC3CCN(C(=O)Cc4cccc(O)c4)CC3)nc2)c1` [Example 4-83], 3 nM; under `Cc1cc(Nc2cc(C(F)(F)F)ccn2)nc(-c2ccc(NC3CCN(C(=O)c4ccncc4)CC3)nc2)c1` [Example 4-84], 4 nM.
Under `Cc1cc(Nc2cc(C(F)(F)F)ccn2)nc(-c2ccc(NC3CCN(C(=O)c4cccc(C#N)c4)CC3)nc2)c1` [Example 4-85] stands 7 nM; under `Cc1cc(Nc2cc(C(F)(F)F)ccn2)nc(-c2ccc(NC3CCN(C(=O)c4n[nH]c5ccccc45)CC3)nc2)c1` [Example 4-86], 7 nM.
`COc1ccccc1C(=O)N1CCC(Nc2ccc(-c3cc(C)cc(Nc4cc(C(F)(F)F)ccn4)n3)cn2)CC1` [Example 4-87]: the IC50 was determined as 6 nM.
With `Cc1cc(Nc2cc(C(F)(F)F)ccn2)nc(-c2ccc(NC3CCN(C(=O)Cc4c(C)[nH]c5ccccc45)CC3)nc2)c1` [Example 4-88] the figure was 11 nM; with `Cc1cc(Nc2cc(C(F)(F)F)ccn2)nc(-c2ccc(NC3CCN(C(=O)CCCN4CCCC4=O)CC3)nc2)c1` [Example 4-89], 1 nM.
On to `Cc1cc(Nc2cc(C(F)(F)F)ccn2)nc(-c2ccc(NC3CCN(C(=O)c4ccc(C#N)cc4)CC3)nc2)c1` [Example 4-90], for which the IC50 was found to be 4 nM.
With `Cc1cc(Nc2cc(C(F)(F)F)ccn2)nc(-c2ccc(NC3CCN(C(=O)Cc4ccc(C#N)cc4)CC3)nc2)c1` [Example 4-91] the figure was 4 nM; with `Cc1cc(Nc2cc(C(F)(F)F)ccn2)nc(-c2ccc(NC3CCN(C(=O)c4cnc5ccccc5c4)CC3)nc2)c1` [Example 4-92], 4 nM.
With `COc1ccc(C(=O)N2CCC(Nc3ccc(-c4cc(C)cc(Nc5cc(C(F)(F)F)ccn5)n4)cn3)CC2)cc1` [Example 4-93] the figure was 5 nM; with `Cc1cc(Nc2cc(C(F)(F)F)ccn2)nc(-c2ccc(NC3CCN(C(=O)c4cccnc4)CC3)nc2)c1` [Example 4-94], 2 nM.
Under `Cc1cc(Nc2cc(C(F)(F)F)ccn2)nc(-c2ccc(NC3CCN(C(=O)Cc4ccccc4Cl)CC3)nc2)c1` [Example 4-95] stands 12 nM; under `Cc1cc(Nc2cc(C(F)(F)F)ccn2)nc(-c2ccc(NC3CCN(C(=O)Cc4cccc(C(F)(F)F)c4)CC3)nc2)c1` [Example 4-96], 103 nM; under `Cc1cc(Nc2cc(C(F)(F)F)ccn2)nc(-c2ccc(NC3CCN(C(=O)c4ccc5nc(C)c(C)nc5c4)CC3)nc2)c1` [Example 4-97], 2 nM.
Regarding `Cc1cc(Nc2cc(C(F)(F)F)ccn2)nc(-c2ccc(NC3CCN(C(=O)c4ccc5[nH]ncc5c4)CC3)nc2)c1` [Example 4-98], the IC50 is 5 nM.
With `Cc1cc(Nc2cc(C(F)(F)F)ccn2)nc(-c2ccc(NC3CCN(C(=O)c4cn(C)c5ccccc45)CC3)nc2)c1` [Example 4-99] the figure was 11 nM; with `Cc1cc(Nc2cc(C(F)(F)F)ccn2)nc(-c2ccc(NC3CCN(C(=O)Cc4ccc(O)c(Cl)c4)CC3)nc2)c1` [Example 4-100], 9 nM.
With `Cc1cc(Nc2cc(C(F)(F)F)ccn2)nc(-c2ccc(NC3CCN(C(=O)c4cccc(O)c4)CC3)nc2)c1` [Example 4-101] the figure was 8 nM; with `Cc1cc(Nc2cc(C(F)(F)F)ccn2)nc(-c2ccc(NC3CCN(C(=O)Cc4cn(C)c5ccccc45)CC3)nc2)c1` [Example 4-102], 7 nM; with `Cc1cc(Nc2cc(C(F)(F)F)ccn2)nc(-c2ccc(NC3CCN(C(=O)c4ccc5[nH]c(C)c(C)c5c4)CC3)nc2)c1` [Example 4-103], 11 nM.
With `Cc1cc(Nc2cc(C(F)(F)F)ccn2)nc(-c2ccc(NC3CCN(C(=O)c4ccccn4)CC3)nc2)c1` [Example 4-104] the figure was 2 nM; with `Cc1cc(Nc2cc(C(F)(F)F)ccn2)nc(-c2ccc(NC3CCN(C(=O)c4cccc(Cl)c4)CC3)nc2)c1` [Example 4-105], 245 nM.
`Cc1cc(Nc2cc(C(F)(F)F)ccn2)nc(-c2ccc(NC3CCN(C(=O)c4ccc(O)cc4)CC3)nc2)c1` [Example 4-106]: the IC50 turned out to be 6 nM.
`Cc1cc(Nc2cc(C(F)(F)F)ccn2)nc(-c2ccc(NC3CCN(C(=O)Cc4cccc(Cl)c4)CC3)nc2)c1` [Example 4-107]: the half-maximal inhibitory concentration (IC50) amounted to 13 nM.
Under `Cc1cc(Nc2cc(C(F)(F)F)ccn2)nc(-c2ccc(NC3CCN(C(=O)Cc4ccc(O)cc4)CC3)nc2)c1` [Example 4-108] stands 3 nM; under `COc1cccc(C(=O)N2CCC(Nc3ccc(-c4cc(C)cc(Nc5cc(C(F)(F)F)ccn5)n4)cn3)CC2)c1` [Example 4-109], 6 nM; under `COc1cccc(CC(=O)N2CCC(Nc3ccc(-c4cc(C)cc(Nc5cc(C(F)(F)F)ccn5)n4)cn3)CC2)c1` [Example 4-110], 6 nM.
With `Cc1cc(Nc2cc(C(F)(F)F)ccn2)nc(-c2ccc(NC3CCN(C(=O)c4ccc5ncccc5c4)CC3)nc2)c1` [Example 4-111] the figure was 3 nM; with `Cc1cc(Nc2cc(C(F)(F)F)ccn2)nc(-c2ccc(NC3CCN(C(=O)c4ccccc4C#N)CC3)nc2)c1` [Example 4-112], 6 nM; with `Cc1cc(Nc2cc(C(F)(F)F)ccn2)nc(-c2ccc(NC3CCN(C(=O)c4cc5ccccc5n4C)CC3)nc2)c1` [Example 4-113], 26 nM.
Under `Cc1cc(Nc2cc(C(F)(F)F)ccn2)nc(-c2ccc(NC3CCN(C(=O)c4ccc(Oc5ccccc5)cc4)CC3)nc2)c1` [Example 4-114] stands 23 nM; under `Cc1cc(Nc2cc(C(F)(F)F)ccn2)nc(-c2ccc(NC3CCN(C(=O)c4ccc(F)c(O)c4)CC3)nc2)c1` [Example 4-115], 4 nM; under `Cc1cc(Nc2cc(C(F)(F)F)ccn2)nc(-c2ccc(NC3CCN(C(=O)Cc4ccc(O)c(F)c4)CC3)nc2)c1` [Example 4-116], 4 nM.
Take `Cc1cc(Nc2cc(C(F)(F)F)ccn2)nc(-c2ccc(NC3CCN(C(=O)c4cccc5c4-c4ccccc4C5)CC3)nc2)c1` [Example 4-117]: the 50% inhibitory concentration (IC50) worked out at 141 nM.
With `Cc1cc(Nc2cc(C(F)(F)F)ccn2)nc(-c2ccc(NC3CCN(C(=O)c4cc5ccccc5n4-c4ccccc4)CC3)nc2)c1` [Example 4-118] the figure was 176 nM; with `Cc1cc(Nc2cc(C(F)(F)F)ccn2)nc(-c2ccc(NC3CCN(C(=O)c4cccc5c6c([nH]c45)CCCC6)CC3)nc2)c1` [Example 4-119], 19 nM.
Under `Cc1cc(Nc2cc(C(F)(F)F)ccn2)nc(-c2ccc(NC3CCN(C(=O)c4cccc5[nH]ncc45)CC3)nc2)c1` [Example 4-120] stands 9 nM; under `Cc1cc(Nc2cc(C(F)(F)F)ccn2)nc(-c2ccc(NC3CCN(C(=O)CCc4nc5ccccc5s4)CC3)nc2)c1` [Example 4-121], 5 nM.
With `Cc1cc(Nc2cc(C(F)(F)F)ccn2)nc(-c2ccc(NC3CCN(C(=O)c4cccc(-c5ccccc5)c4)CC3)nc2)c1` [Example 4-122] the figure was 3 nM.
As to `Cc1cc(Nc2cc(C(F)(F)F)ccn2)nc(-c2ccc(N3CC[C@H](N)C3)nc2)c1` [Example 5, 6′-[(3S)-3-aminopyrrolidin-1-yl]-4-methyl-N-[4-(trifluoromethyl)pyridin-2-yl]-2,3′-bipyridin-6-amine], the IC50 is 1 nM.
Under `Cc1cc(Nc2cc(C(F)(F)F)ccn2)nc(-c2ccc(N3CCCC(N)C3)nc2)c1` (stereo not shown) [Example 5-1] stands 2 nM; under `Cc1cc(Nc2cc(C(F)(F)F)ccn2)nc(-c2ccc(NC3CCNCC3)nc2)c1` [Example 5-2], 6 nM; under `Cc1cc(Nc2cc(C(F)(F)F)ccn2)nc(-c2ccc(C3(O)CCNCC3)nc2)c1` [Example 5-3], 9 nM.
Under `CC(=O)N[C@H]1CCN(c2ccc(-c3cc(C)cc(Nc4cc(C(F)(F)F)ccn4)n3)cn2)C1` [Example 6, N-[(3S)-1-(4-methyl-6-{[4-(trifluoromethyl)pyridin-2-yl]amino}-2,3′-bipyridin-6′-yl)pyrrolidin-3-yl]acetamide] stands 17 nM.
Under `Cc1cc(Nc2cc(C(F)(F)F)ccn2)nc(-c2ccc(N3CC[C@H](NC(=O)c4ccc5cc[nH]c5c4)C3)nc2)c1` [Example 6-1] stands 17 nM; under `Cc1cc(Nc2cc(C(F)(F)F)ccn2)nc(-c2ccc(NC3CCN(C(N)=O)CC3)nc2)c1` [Example 7, 4-(4-Methyl-6-(4-(trifluoromethyl)pyridin-2-ylamino)-2,3′-bipyridin-6′-ylamino)piperidine-1-carboxamide], 4 nM; under `Cc1cc(Nc2cc(C(F)(F)F)ccn2)nc(-c2ccc(N3CCCC(NC(N)=O)C3)nc2)c1` (stereo not shown) [Example 7-1], 5 nM.
Consider `Cc1cc(Nc2cc(C(F)(F)F)ccn2)nc(-c2ccc(C3(O)CCN(C(=O)c4ccc5cc[nH]c5n4)CC3)nc2)c1` [Example 9, 4-(4-Methyl-6-{[4-(trifluoromethyl)pyridin-2-yl]amino}-2,3′-bipyridin-6′-yl)-1-(1H-pyrrolo[2,3-b]pyridin-6-ylcarbonyl)piperidin-4-ol], for which the IC50 amounted to 9 nM.
With `Cc1cc(Nc2cc(C(F)(F)F)ccn2)nc(-c2ccc(C3(O)CCN(C(=O)c4ccc5cccnc5c4)CC3)nc2)c1` [Example 9-1] the figure was 30 nM; with `Cc1cc(Nc2cc(C(F)(F)F)ccn2)nc(-c2ccc(C3(O)CCN(C(=O)c4ccc5cc[nH]c5c4)CC3)nc2)c1` [Example 9-2], 13 nM.
With `Cc1cc(Nc2cc(C(F)(F)F)ccn2)nc(-c2ccc(C3(O)CCN(C(=O)c4c[nH]c5cc(C)ccc45)CC3)nc2)c1` [Example 9-3] the figure was 10 nM; with `Cc1cc(Nc2cc(C(F)(F)F)ccn2)nc(-c2ccc(C3(O)CCN(C(=O)c4ccc5nc(C)c(C)nc5c4)CC3)nc2)c1` [Example 9-4], 5 nM.
